Source: patent EP2628479A1, “Cosmetic use of climbazol” (Henkel AG&Co. KGAA, priority 2011, dated 2013)

Tested on: Co-Kultur-System
Assay: Collagen neosynthesis in co-culture system (2D fibroblast culture with 3D epidermis model insert), P1 NP secreted into the medium
Format: cell-based
Details: unbehandelt = 107
Text: Zum Nachweis der Kollagen-Neusynthese wurde ein Co-Kultur-System verwendet, das aus einer zweidimensionalen Fibroblasten-Kultur besteht, auf die in einem Insert ein dreidimensionales Epidermismodell aufgesetzt wurde. Über das Nährmedium kann ein Stoffaustausch zwischen den Fibroblasten und den Keratinocyten des Epidermismodells erfolgen.
Als Kontrollen für die Syntheseinduktion wurden Retinsäure und Retinol eingesetzt.

## CC1=C(/C=C/C(C)=C/C=C/C(C)=C/C(=O)O)C(C)(C)CCC1 [Retinsäure]
Retinsäure 5µM
  P1 NP: 200 µg/mL

## CC1=C(/C=C/C(C)=C/C=C/C(C)=C/CO)C(C)(C)CCC1 [Retinol]
Retinol 5µM
  P1 NP: 146 µg/mL

## CC(C)(C)C(=O)C(Oc1ccc(Cl)cc1)n1ccnc1 (stereo not drawn) [Climbazol, Imidazolyl-1-(4-chlorophenoxy)-3,3-dimethylbutane-2-one]
Climbazol 0,005%
  P1 NP: 135 µg/mL
